Experimental data reported in ChEMBL document CHEMBL5579792, “Natural products fragment-based design and synthesis of a novel pentacyclic ring system as potential MAPK inhibitor” (Bioorg Med Chem Lett, 2024).
The source made the active and inactive calls. The calls are words filed in the database; no cut-off is given here.

Legend:
MDA-MB-231 = assay: Antiproliferative activity against human MDA-MB-231 cells assessed as inhibition of cell growth by MTT assay; type: functional, cell-based
HCT-116 = assay: Antiproliferative activity against human HCT-116 cells assessed as inhibition of cell growth by MTT assay; type: functional, cell-based
A549 [1] = assay: Antiproliferative activity against human A549 cells assessed as inhibition of cell growth by MTT assay; type: functional, cell-based
A549 [2] = assay: Downregulation of phosphorylated JNK/JNK protein expression in human A549 cells at 0.11 to 0.34 uM measured after 48 hrs by Western blot analysis; type: functional, cell-based; conditions: dose 0.11-0.34 µM
A549 [3] = assay: Induction of apoptosis in human A549 cells assessed as dead cells at 0.11 uM incubated for 48 hrs by Annexin V/PI staining based flow cytometry analysis (reference value: 4.58%); type: functional
A549 [4] = assay: Induction of cell cycle arrest in human A549 cells assessed as accumulation at G2/M phase at 0.34 uM incubated for 48 hrs by PI staining based flow cytometry analysis (reference value: 1.14%); type: functional
A549 [5] = assay: Induction of apoptosis in human A549 cells assessed as early apoptotic cells at 0.11 uM incubated for 48 hrs by Annexin V/PI staining based flow cytometry analysis (reference value: 1.79%); type: functional
A549 [6] = assay: Induction of apoptosis in human A549 cells assessed as late apoptotic cells at 0.11 uM incubated for 48 hrs by Annexin V/PI staining based flow cytometry analysis (reference value: 2.96%); type: functional
A549 [7] = assay: Induction of apoptosis in human A549 cells assessed as early apoptotic cells at 0.34 uM incubated for 48 hrs by Annexin V/PI staining based flow cytometry analysis (reference value: 1.79%); type: functional
A549 [8] = assay: Inhibition of cell migration in human A549 cells at 0.11 uM measured after 48 hrs by scratch assay relative to control; type: functional
A549 [9] = assay: Inhibition of cell migration in human A549 cells at 0.22 uM measured after 24 hrs by scratch assay relative to control; type: functional
A549 [10] = assay: Induction of apoptosis in human A549 cells assessed as early apoptotic cells at 0.22 uM incubated for 48 hrs by Annexin V/PI staining based flow cytometry analysis (reference value: 1.79%); type: functional
A549 [11] = assay: Induction of cell cycle arrest in human A549 cells assessed as accumulation at S phase at 0.34 uM incubated for 48 hrs by PI staining based flow cytometry analysis (reference value: 12.105%); type: functional
A549 [12] = assay: Antiproliferative activity against human A549 cells assessed as inhibition of cell growth measured after 24 hrs by MTT assay; type: functional, cell-based; conditions: A549, 24 h
A549 [13] = assay: Antiproliferative activity against human A549 cells assessed as inhibition of cell growth measured after 72 hrs by MTT assay; type: functional, cell-based; conditions: A549, 72 h
A549 [14] = assay: Downregulation of phosphorylated ERK/ERK protein expression in human A549 cells at 0.11 to 0.34 uM measured after 48 hrs by Western blot analysis; type: functional, cell-based; conditions: dose 0.11-0.34 µM
A549 [15] = assay: Induction of cell cycle arrest in human A549 cells assessed as accumulation at S phase at 0.11 uM incubated for 48 hrs by PI staining based flow cytometry analysis (reference value: 12.105%); type: functional
A549 [16] = assay: Induction of apoptosis in human A549 cells assessed as late apoptotic cells at 0.34 uM incubated for 48 hrs by Annexin V/PI staining based flow cytometry analysis (reference value: 2.96%); type: functional
A549 [17] = assay: Inhibition of cell migration in human A549 cells at 0.22 uM measured after 48 hrs by scratch assay relative to control; type: functional
A549 [18] = assay: Induction of cell cycle arrest in human A549 cells assessed as accumulation at G2/M phase at 0.22 uM incubated for 48 hrs by PI staining based flow cytometry analysis (reference value: 1.14%); type: functional
A549 [19] = assay: Induction of apoptosis in human A549 cells assessed as live cells at 0.22 uM incubated for 48 hrs by Annexin V/PI staining based flow cytometry analysis (reference value: 90.7%); type: functional
A549 [20] = assay: Induction of apoptosis in human A549 cells assessed as live cells at 0.11 uM incubated for 48 hrs by Annexin V/PI staining based flow cytometry analysis (reference value: 90.7%); type: functional
A549 [21] = assay: Inhibition of cell migration in human A549 cells at 0.11 uM measured after 24 hrs by scratch assay relative to control; type: functional
A549 [22] = assay: Induction of apoptosis in human A549 cells assessed as live cells at 0.34 uM incubated for 48 hrs by Annexin V/PI staining based flow cytometry analysis (reference value: 90.7%); type: functional
A549 [23] = assay: Induction of cell cycle arrest in human A549 cells assessed as accumulation at G2/M phase at 0.11 uM incubated for 48 hrs PI staining based by flow cytometry analysis (reference value: 1.14%); type: functional
A549 [24] = assay: Induction of apoptosis in human A549 cells assessed as late apoptotic cells at 0.22 uM incubated for 48 hrs by Annexin V/PI staining based flow cytometry analysis (reference value: 2.96%); type: functional
A549 [25] = assay: Antiproliferative activity against human A549 cells assessed as inhibition of cell growth measured after 48 hrs by MTT assay; type: functional, cell-based; conditions: A549, 48 h
A549 [26] = assay: Inhibition of cell migration in human A549 cells at 0.34 uM measured after 24 hrs by scratch assay relative to control; type: functional
A549 [27] = assay: Induction of cell cycle arrest in human A549 cells assessed as accumulation at G0/G1 phase at 0.11 uM incubated for 48 hrs by PI staining based flow cytometry analysis (reference value: 84.47%); type: functional
A549 [28] = assay: Inhibition of cell migration in human A549 cells at 0.34 uM measured after 48 hrs by scratch assay relative to control; type: functional
A549 [29] = assay: Induction of apoptosis in human A549 cells assessed as dead cells at 0.22 uM incubated for 48 hrs by Annexin V/PI staining based flow cytometry analysis (reference value: 4.58%); type: functional
A549 [30] = assay: Induction of cell cycle arrest in human A549 cells assessed as accumulation at S phase at 0.22 uM incubated for 48 hrs by PI staining based flow cytometry analysis (reference value: 12.105%); type: functional
A549 [31] = assay: Induction of apoptosis in human A549 cells assessed as reduction in Bcl-2 protein expression at 0 to 0.34 uM measured after 48 hrs by Western blot analysis; type: functional, cell-based; conditions: dose 0-0.34 µM
A549 [32] = assay: Induction of apoptosis in human A549 cells assessed as dead cells at 0.34 uM incubated for 48 hrs by Annexin V/PI staining based flow cytometry analysis (reference value: 4.58%); type: functional
A549 [33] = assay: Induction of cell cycle arrest in human A549 cells assessed as accumulation at G0/G1 phase at 0.34 uM incubated for 48 hrs by PI staining based flow cytometry analysis (reference value: 84.47%); type: functional
A549 [34] = assay: Induction of apoptosis in human A549 cells assessed as increase in caspase-3 protein expression at 0 to 0.34 uM measured after 48 hrs by Western blot analysis; type: functional, cell-based; conditions: dose 0-0.34 µM
A549 [35] = assay: Induction of cell cycle arrest in human A549 cells assessed as accumulation at G0/G1 phase at 0.22 uM incubated for 48 hrs by PI staining based flow cytometry analysis (reference value: 84.47%); type: functional
A549 [36] = assay: Upregulation of phosphorylated p38/p38 protein expression in human A549 cells at 0.11 to 0.34 uM measured after 48 hrs by Western blot analysis; type: functional, cell-based; conditions: dose 0.11-0.34 µM
A549 [37] = assay: Induction of apoptosis in human A549 cells assessed as increase in BAX protein expression at 0 to 0.34 uM measured after 48 hrs by Western blot analysis; type: functional, cell-based; conditions: dose 0-0.34 µM

Compound: O=c1c2cc3ccccc3nc2nc2n1-c1ccccc1/C2=N\O
- IC50 (MDA-MB-231): > 100 µM
- IC50 (HCT-116): > 100 µM
- IC50 (A549 [1]): > 100 µM

Compound: O=C1c2cc(F)ccc2-n2c1nc1nc3ccccc3cc1c2=O
- IC50 (MDA-MB-231): 10.1 µM
- IC50 (HCT-116): 15 µM
- IC50 (A549 [1]): 6.45 µM

Compound: N/N=C1\c2ccccc2-n2c1nc1nc3ccccc3cc1c2=O
- IC50 (MDA-MB-231): > 100 µM
- IC50 (HCT-116): > 100 µM
- IC50 (A549 [1]): > 100 µM

Compound: O=C1c2ccccc2-n2c1nc1nc3ccccc3cc1c2=O
- Activity (A549 [2]): Active
- Activity (A549 [3]): 7.17%
- Activity (A549 [4]): 9.58%
- Activity (A549 [5]): 7.83%
- Activity (A549 [6]): 17.4%
- Activity (A549 [7]): 7.39%
- inhibition at 0.11 µM (A549 [8]): 50%
- inhibition at 0.22 µM (A549 [9]): 31%
- Activity (A549 [10]): 8.47%
- Activity (A549 [11]): 29.02%
- IC50 (A549 [12]): 0.43 µM
- IC50 (MDA-MB-231): 3.54 µM
- IC50 (A549 [13]): 0.25 µM
- Activity (A549 [14]): Active
- Activity (A549 [15]): 22.63%
- Activity (A549 [16]): 19.9%
- inhibition at 0.22 µM (A549 [17]): 56%
- Activity (A549 [18]): 8.87%
- Activity (A549 [19]): 66.9%
- Activity (A549 [20]): 67.5%
- IC50 (HCT-116): 25.2 µM
- inhibition at 0.11 µM (A549 [21]): 22%
- Activity (A549 [22]): 63.4%
- Activity (A549 [23]): 5.59%
- Activity (A549 [24]): 18%
- IC50 (A549 [25]): 0.34 µM
- inhibition at 0.34 µM (A549 [26]): 38%
- Activity (A549 [27]): 72.8%
- inhibition at 0.34 µM (A549 [28]): 60%
- Activity (A549 [29]): 6.65%
- Activity (A549 [30]): 25.65%
- Activity (A549 [31]): Active
- Activity (A549 [32]): 9.32%
- Activity (A549 [33]): 60.39%
- Activity (A549 [34]): Active
- Activity (A549 [35]): 62.47%
- IC50 (A549 [1]): 0.34 µM
- Activity (A549 [36]): Active
- Activity (A549 [37]): Active

Compound: O=C1c2cc(F)c(Cl)cc2-n2c1nc1nc3ccccc3cc1c2=O
- IC50 (MDA-MB-231): 10.1 µM
- IC50 (HCT-116): 0.4 µM
- IC50 (A549 [1]): 0.43 µM

Compound: Cc1ccc2c(c1Cl)C(=O)c1nc3nc4ccccc4cc3c(=O)n1-2
- IC50 (MDA-MB-231): 1.95 µM
- IC50 (HCT-116): 43.2 µM
- IC50 (A549 [1]): 35.1 µM

Compound: CC[C@@]1(O)C(=O)OCc2c1cc1n(c2=O)Cc2cc3ccccc3nc2-1 [CAMPTOTHECIN]
- IC50 (A549 [1]): 0.39 µM

Compound: O=C1c2c(ccc(F)c2Cl)-n2c1nc1nc3ccccc3cc1c2=O
- IC50 (MDA-MB-231): 10.3 µM
- IC50 (HCT-116): 0.33 µM
- IC50 (A549 [1]): 0.53 µM

Compound: O=C1c2ccccc2-n2c1nc1cc3ccccc3cc1c2=O [BENZO[K]TRYPTANTHRIN]
- IC50 (MDA-MB-231): 17.6 µM
- IC50 (HCT-116): 13.5 µM
- IC50 (A549 [1]): 10.3 µM
